Data published in paper PMC7413254 (Nature Communications, 2020).
Like-named read-outs stand apart in the source and are kept apart here. Where no end group is shown, it is not given here.

What was measured:
Format in all cases: cell-based
[1] = biological target: T1, PfCRT^Dd2 (Plasmodium falciparum, UniProt Q9N623, A220S/I356T/K76T/M74I/N326S/N75E/Q271E/R371I); assay: [3H]CQ uptake into Xenopus oocytes, cis-inhibition by unlabelled solute; conditions: for PfCRT-mediated [3H]CQ transport, cis-inhibition (% PfCRTDd2 control): PfCRTDd2 oocytes, background [3H]CQ accumulation subtracted, normalised to oocyte type control
Method in brief: (§1)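 Using pH 5.5 ND96 at 27.5 °C, uptake is followed for 1.5 h, stopped with ice-cold buffer, and quantified as accumulated radioactivity per oocyte after SDS lysis.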

[2] = biological target: T2, PfCRT^Ecu1110 (Plasmodium falciparum, UniProt Q9N623, A220S/I356L/K76T/N326D); assay: as above; conditions: for PfCRT-mediated [3H]CQ transport, cis-inhibition (% PfCRTEcu1110 control): PfCRTEcu1110 oocytes, background [3H]CQ accumulation subtracted, normalised to oocyte type control; for [3H]CQ transport (% PfCRTEcu1110 control), cis-inhibition, PfCRTEcu1110: PfCRT-mediated component (background subtracted), sheet title says normalised to PfCRTDd2 control, mean ± SEM
Method in brief: as §1

[3] = biological target: PfCRT^3D7 (Plasmodium falciparum, UniProt Q8IBZ9); assay: cell-based; conditions: for [3H]CQ transport, PfCRT3D7 (% PfCRT3D7 control): solute 45 mM injected (estimated intracellular)
Method in brief: (§2)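 Oocytes (ten per treatment, ≥4 independent frogs/days) were preloaded by injecting VF-6 in 25 nL ND96 at pH 5.0, 5.5, 6.0 or 7.0, or Na^+-free choline buffer, then uptake run 1.5 h, 27.5 °C, ND96 pH 5.5 by default. Internal concentrations assumed ~400 nL oocyte volume.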

[4] = biological target: T1, PfCRT^Dd2; assay: cell-based
Method in brief: as §2

[5] = biological target: T2, PfCRT^Ecu1110; assay: cell-based; conditions: for [3H]CQ transport (% PfCRTDd2 control), trans-stimulation, PfCRTEcu1110: PfCRT-mediated component (background subtracted), sheet title says normalised to PfCRTDd2 control, mean ± SEM, SEM
Method in brief: as §2

[6] = biological target: T3, PfNT1 (Plasmodium falciparum, UniProt Q8IDM6); assay: cell-based; conditions: trans-stimulation, solute 45 mM injected (estimated intracellular)
T3 construct: expressed in transfected cells; host or cells: Xenopus laevis oocytes (stage V-VI), cRNA-injected
Method in brief: as §2

[7] = read-out: PfCRT-mediated [3H]CQ transport, cis-inhibition (% PfCRTDd2 control)
[8] = read-out: PfCRT-mediated [3H]CQ transport, cis-inhibition (% PfCRTEcu1110 control)
[9] = read-out: [3H]CQ transport (% PfCRTEcu1110 control), cis-inhibition, PfCRTEcu1110, SEM
[10] = trans-stimulation, Experiment 1
[11] = trans-stimulation, Experiment 2
[12] = trans-stimulation, Experiment 3
[13] = trans-stimulation, Experiment 4

T1 sequence (Q9N623 whole entry A220S/I356T/K76T/M74I/N326S/N75E/Q271E/R371I): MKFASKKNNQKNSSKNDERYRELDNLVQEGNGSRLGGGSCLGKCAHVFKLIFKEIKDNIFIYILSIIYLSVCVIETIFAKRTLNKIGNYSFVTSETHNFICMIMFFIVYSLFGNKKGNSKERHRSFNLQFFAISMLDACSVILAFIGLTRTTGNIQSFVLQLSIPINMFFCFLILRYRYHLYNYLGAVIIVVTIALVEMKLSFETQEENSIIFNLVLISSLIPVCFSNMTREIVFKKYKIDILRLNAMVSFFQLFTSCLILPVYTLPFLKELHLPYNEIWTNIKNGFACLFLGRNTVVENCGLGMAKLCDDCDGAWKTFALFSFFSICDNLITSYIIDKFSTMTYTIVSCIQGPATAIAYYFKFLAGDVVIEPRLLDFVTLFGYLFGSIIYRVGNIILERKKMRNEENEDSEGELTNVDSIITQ
T3 sequence (Q8IDM6 whole entry): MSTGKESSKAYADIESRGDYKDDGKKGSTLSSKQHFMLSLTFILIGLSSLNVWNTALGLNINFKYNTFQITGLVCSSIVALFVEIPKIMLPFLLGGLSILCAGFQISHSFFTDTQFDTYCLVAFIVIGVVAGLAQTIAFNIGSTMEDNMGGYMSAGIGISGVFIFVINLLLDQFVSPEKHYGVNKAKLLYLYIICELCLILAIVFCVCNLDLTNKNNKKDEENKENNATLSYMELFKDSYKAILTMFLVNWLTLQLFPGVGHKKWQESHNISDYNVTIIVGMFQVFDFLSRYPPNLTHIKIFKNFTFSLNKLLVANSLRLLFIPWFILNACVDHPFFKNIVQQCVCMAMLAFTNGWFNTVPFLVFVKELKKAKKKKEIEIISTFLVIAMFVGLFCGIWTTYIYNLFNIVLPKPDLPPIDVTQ
Chain of PfCRT^3D7 (Q8IBZ9 59-398): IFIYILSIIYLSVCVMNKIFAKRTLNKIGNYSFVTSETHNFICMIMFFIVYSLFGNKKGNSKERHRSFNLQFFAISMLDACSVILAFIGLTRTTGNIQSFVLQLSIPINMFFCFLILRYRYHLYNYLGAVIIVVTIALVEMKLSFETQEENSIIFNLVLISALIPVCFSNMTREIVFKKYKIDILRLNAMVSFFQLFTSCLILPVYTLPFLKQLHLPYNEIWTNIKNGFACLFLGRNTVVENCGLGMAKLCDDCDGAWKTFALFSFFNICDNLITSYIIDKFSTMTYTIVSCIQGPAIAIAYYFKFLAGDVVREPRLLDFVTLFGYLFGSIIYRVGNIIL
T2 sequence (Q9N623 whole entry A220S/I356L/K76T/N326D): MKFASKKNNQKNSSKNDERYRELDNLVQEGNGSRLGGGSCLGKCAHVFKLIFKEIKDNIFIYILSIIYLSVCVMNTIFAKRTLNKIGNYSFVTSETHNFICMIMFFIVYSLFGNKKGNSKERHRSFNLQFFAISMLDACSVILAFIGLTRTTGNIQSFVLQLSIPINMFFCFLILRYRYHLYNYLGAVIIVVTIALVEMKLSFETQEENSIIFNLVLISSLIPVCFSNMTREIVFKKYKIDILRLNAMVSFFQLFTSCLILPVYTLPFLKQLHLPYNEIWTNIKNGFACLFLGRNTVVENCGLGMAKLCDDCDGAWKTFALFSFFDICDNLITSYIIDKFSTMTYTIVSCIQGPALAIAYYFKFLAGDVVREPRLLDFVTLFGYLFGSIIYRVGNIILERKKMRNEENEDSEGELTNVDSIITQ

HVDDM [HM-5]
inhibition at 500 µM [1, 7]: 32 ± 0.8%
inhibition at 1000 µM [1, 7]: 19 ± 2%
inhibition at 2000 µM [1, 7]: 9 ± 0.1%
inhibition at 1000 µM [2, 8]: 41 ± 3.5%
inhibition at 2000 µM [2, 8]: 32 ± 2.1%
inhibition at 500 µM [2, 9]: 14 ± 0.1%
inhibition at 2000 µM [2, 9]: 10 ± 0.5%
activity at 5000 µM ([3]; […], read-out: PfCRT-mediated [3H]CQ transport, trans-stimulation (% PfCRT3D7 control), [test solute]i = 5 mM (intracellular), PfCRT3D7 oocytes, normalised to oocyte type control): 130 ± 4.2%
activity at 45000 µM ([3]; […], read-out: PfCRT-mediated [3H]CQ transport, trans-stimulation (% PfCRT3D7 control), [test solute]i = 45 mM (intracellular; 30 mM for some solutes due to solubility), PfCRT3D7 oocytes, normalised to oocyte type control): 178 ± 5.2%
[3H]CQ transport, PfCRT3D7 (% PfCRT3D7 control) [3, 10]: 193.43 % PfCRT3D7 control
[3H]CQ transport, PfCRT3D7 (% PfCRT3D7 control) [3, 11]: 185.08 % PfCRT3D7 control
[3H]CQ transport, PfCRT3D7 (% PfCRT3D7 control) [3, 12]: 185.21 % PfCRT3D7 control
[3H]CQ transport, PfCRT3D7 (% PfCRT3D7 control) [3, 13]: 174.23 % PfCRT3D7 control
[3H]CQ transport (% PfCRT3D7 control), trans-stimulation, PfCRT3D7 ([3]; trans-stimulation, [test solute]i = 5 mM (injected), PfCRT-mediated component (background subtracted), sheet title says normalised to PfCRTDd2 control, mean ± SEM, SEM): 0.2 ± 0.01 % PfCRT3D7 control
activity at 5000 µM ([4]; […], pH 5.5, read-out: PfCRT-mediated [3H]CQ transport, trans-stimulation (% PfCRTDd2 control), [test solute]i = 5 mM (intracellular), PfCRTDd2 oocytes, normalised to oocyte type control): 100 ± 2.5%
activity at 5000 µM ([4]; […], pH 5.5, read-out: [3H]CQ transport (% PfCRTDd2 control), trans-stimulation, PfCRTDd2, trans-stimulation, [test solute]i = 5 mM (injected), PfCRT-mediated component (background subtracted), mean ± SEM, SEM): 100 ± 2.5%
activity at 45000 µM ([4]; […], pH 5.5, read-out: [3H]CQ transport (% PfCRTDd2 control), trans-stimulation, PfCRTDd2, trans-stimulation, [test solute]i = 45 mM (30 mM for some solutes due to solubility), PfCRT-mediated component (background subtracted), mean ± SEM, SEM): 113 ± 2.2%
activity at 5000 µM ([5]; […], pH 5.5, read-out: PfCRT-mediated [3H]CQ transport, trans-stimulation (% PfCRTEcu1110 control), [test solute]i = 5 mM (intracellular), PfCRTEcu1110 oocytes, normalised to oocyte type control): 122 ± 1.1%
[3H]CQ transport, PfNT1 (% PfCRTDd2 control) ([6]; Experiment 1): 3.35 % PfCRTDd2 control
[3H]CQ transport, PfNT1 (% PfCRTDd2 control) ([6]; Experiment 2): 3.11 % PfCRTDd2 control
[3H]CQ transport, PfNT1 (% PfCRTDd2 control) ([6]; Experiment 3): 3.44 % PfCRTDd2 control
[3H]CQ transport, PfNT1 (% PfCRTDd2 control) ([6]; Experiment 4): 3.27 % PfCRTDd2 control

YFPHF [YF-5]
PfCRT-mediated [3H]CQ transport, cis-inhibition (% PfCRTDd2 control) ([1]; [test solute] = 0.5 mM): 53 ± 3.1 % PfCRTDd2 control
PfCRT-mediated [3H]CQ transport, cis-inhibition (% PfCRTDd2 control) ([1]; [test solute] = 1 mM): 39 ± 2.1 % PfCRTDd2 control
PfCRT-mediated [3H]CQ transport, cis-inhibition (% PfCRTDd2 control) ([1]; [test solute] = 2 mM): 7.2 ± 0.1 % PfCRTDd2 control
PfCRT-mediated [3H]CQ transport, cis-inhibition (% PfCRTEcu1110 control) ([2]; [test solute] = 0.5 mM): 63 ± 3.5 % PfCRTEcu1110 control
PfCRT-mediated [3H]CQ transport, cis-inhibition (% PfCRTEcu1110 control) ([2]; [test solute] = 1 mM): 48 ± 1.0 % PfCRTEcu1110 control
PfCRT-mediated [3H]CQ transport, cis-inhibition (% PfCRTEcu1110 control) ([2]; [test solute] = 2 mM): 32 ± 2.1 % PfCRTEcu1110 control
[3H]CQ transport (% PfCRTEcu1110 control), cis-inhibition, PfCRTEcu1110 ([2]; [test solute] = 0.5 mM, SEM): 20 ± 0.4 % PfCRTEcu1110 control
[3H]CQ transport (% PfCRTEcu1110 control), cis-inhibition, PfCRTEcu1110 ([2]; [test solute] = 1 mM, SEM): 15 ± 0.1 % PfCRTEcu1110 control
[3H]CQ transport (% PfCRTEcu1110 control), cis-inhibition, PfCRTEcu1110 ([2]; [test solute] = 2 mM, SEM): 10 ± 0.3 % PfCRTEcu1110 control
PfCRT-mediated [3H]CQ transport, trans-stimulation (% PfCRT3D7 control) ([3]; [test solute]i = 5 mM (intracellular), PfCRT3D7 oocytes, normalised to oocyte type control): 128 ± 2.3 % PfCRT3D7 control
PfCRT-mediated [3H]CQ transport, trans-stimulation (% PfCRT3D7 control) ([3]; [test solute]i = 45 mM (intracellular; 30 mM for some solutes due to solubility), PfCRT3D7 oocytes, normalised to oocyte type control): 147 ± 4.2 % PfCRT3D7 control
[3H]CQ transport, PfCRT3D7 (% PfCRT3D7 control) [3, 10]: 142.23 % PfCRT3D7 control
[3H]CQ transport, PfCRT3D7 (% PfCRT3D7 control) [3, 11]: 155.33 % PfCRT3D7 control
[3H]CQ transport, PfCRT3D7 (% PfCRT3D7 control) [3, 12]: 162.85 % PfCRT3D7 control
[3H]CQ transport, PfCRT3D7 (% PfCRT3D7 control) [3, 13]: 149.32 % PfCRT3D7 control
PfCRT-mediated [3H]CQ transport, trans-stimulation (% PfCRTDd2 control) ([4]; [test solute]i = 5 mM (intracellular), PfCRTDd2 oocytes, normalised to oocyte type control): 97 ± 3.4 % PfCRTDd2 control
PfCRT-mediated [3H]CQ transport, trans-stimulation (% PfCRTDd2 control) ([4]; [test solute]i = 45 mM (intracellular; 30 mM for some solutes due to solubility), PfCRTDd2 oocytes, normalised to oocyte type control): 113 ± 2.4 % PfCRTDd2 control
[3H]CQ transport (% PfCRTDd2 control), trans-stimulation, PfCRTDd2 ([4]; [test solute]i = 5 mM (injected), PfCRT-mediated component (background subtracted), mean ± SEM, SEM): 97 ± 3.4 % PfCRTDd2 control
[3H]CQ transport (% PfCRTDd2 control), trans-stimulation, PfCRTDd2 ([4]; [test solute]i = 45 mM (30 mM for some solutes due to solubility), PfCRT-mediated component (background subtracted), mean ± SEM, SEM): 113 ± 2.4 % PfCRTDd2 control
PfCRT-mediated [3H]CQ transport, trans-stimulation (% PfCRTEcu1110 control) ([5]; [test solute]i = 5 mM (intracellular), PfCRTEcu1110 oocytes, normalised to oocyte type control): 120 ± 2.7 % PfCRTEcu1110 control
PfCRT-mediated [3H]CQ transport, trans-stimulation (% PfCRTEcu1110 control) ([5]; [test solute]i = 45 mM (intracellular; 30 mM for some solutes due to solubility), PfCRTEcu1110 oocytes, normalised to oocyte type control): 131 ± 3.6 % PfCRTEcu1110 control
[3H]CQ transport (% PfCRTDd2 control), trans-stimulation, PfCRTEcu1110 ([5]; [test solute]i = 5 mM (injected)): 37 ± 1.5 % PfCRTEcu1110 control
[3H]CQ transport (% PfCRTDd2 control), trans-stimulation, PfCRTEcu1110 ([5]; [test solute]i = 45 mM (30 mM for some solutes due to solubility)): 40 ± 1.5 % PfCRTEcu1110 control
[3H]CQ transport, PfNT1 (% PfCRTDd2 control) ([6]; Experiment 1): 2.73 % PfCRTDd2 control
[3H]CQ transport, PfNT1 (% PfCRTDd2 control) ([6]; Experiment 2): 2.48 % PfCRTDd2 control
[3H]CQ transport, PfNT1 (% PfCRTDd2 control) ([6]; Experiment 3): 2.58 % PfCRTDd2 control
[3H]CQ transport, PfNT1 (% PfCRTDd2 control) ([6]; Experiment 4): 2.37 % PfCRTDd2 control
